Measured values published in US11447504B2, “Macrocyclic chlorine substituted indole derivatives” (Bayer Aktiengesellschaft, priority 2017, dated 2022).
Counter-ions that a name gives are not always drawn. Like-named read-outs stand apart in the source and are kept apart here.

Columns and labels:
[1] = from CCOC(=O)c1[nH]c2c(-c3c(N(C)CCCCCO)nn(C)c3C)c(Cl)ccc2c1CCCOc1cccc2cc(F)ccc12, amine bond, di-tert-butyl azodicarboxylate/PPh3, THF, 15.7 mM, 64.0 h
MV-4-11 = assay: Antiproliferation assay 7, MV-4-11; format: cell-based; details: MV-4-11 cells, CellTiter-Glo, read-out: Antiproli MV-4-11 IC50 median
In short: (§1)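 CellTiter-Glo luminescence readout; 72 h compound exposure, 37° C, humidified. Day 0 reference plate read at plating for time-zero baseline.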

SUDHL5 [2] = assay: Induction of caspase-3/7 activity (Assay 4), SUDHL5; format: cell-based; details: SUDHL5 cells
In short: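 DLBCL cells treated with compounds for 3 hours at 37° C. Caspase-3/7 activity measured by Caspase-Glo 3/7 luminescence, with medium-only background subtracted.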

AMO-1 = assay: Antiproliferation assay 7, AMO-1; format: cell-based; details: AMO-1 cells, CellTiter-Glo, read-out: Antiproli AMO-1 IC50 median
In short: as §1

SUDHL10 [3] = assay: Induction of cytotoxicity (Assay 6), SUDHL10
SUDHL5 [4] = assay: Antiproliferation assay 7, SUDHL5; format: cell-based; details: SUDHL5 cells, CellTiter-Glo, read-out: Antiproli SUDHL5 IC50 (median)
In short: as §1

A2058 = assay: Antiproliferation assay 7, A2058; format: cell-based; details: A2058 cells, 72 hours, CellTiter-Glo, read-out: Antiproli A2058 IC50 median
Method: (§2) Assessment of the Anti-Proliferative Effect of Compounds in Different Cell Lines
(§3) The impact of compounds on the proliferation of different cell lines was assessed using the CellTiter-Glo® Luminescent Cell Viability reagent from Promega (G7573).
(§4) In parallel, cells were plated in a reference (day 0) plate for time zero determination.
(§5) Rim wells were excluded. The cells were incubated for 72 hours in a humidified incubator at 37° C. The day 0 plate was measured by adding 30 μL/well of CTG solution (CellTiter-Glo® Luminescent Cell Viability reagent, Promega G7573) to time zero wells in the reference plate followed by a 10 minutes incubation and luminescence reading at 0.1 ms. using the PHERAstar FS microplate reader (BMG Labtech).
(§6) After 72 hours incubation, the treated plates were measured in the same way as the day 0 plate mentioned above.

SUDHL10 [5] = assay: Antiproliferation assay 7, SUDHL10; format: cell-based; details: SUDHL10 cells, CellTiter-Glo, read-out: Antiproli SUDHL10 IC50 (median)
In short: as §1

HMC-1-8 = assay: Antiproliferation assay 7, HMC-1-8; format: cell-based; details: HMC-1-8 cells, CellTiter-Glo, read-out: Antiproli HMC-1-8 IC50 median
In short: as §1

SK-BR-3 = assay: Antiproliferation assay 7, SK-BR-3; format: cell-based; details: SK-BR-3 cells, 72 hours, CellTiter-Glo, read-out: Antiproli SK-BR-3 IC50 median
Method: as §2, §3, §4, §5, §6

SUDHL10 [6] = assay: Induction of caspase-3/7 activity (Assay 4), SUDHL10; format: cell-based; details: SUDHL10 cells
In short: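 Luminescent Caspase-Glo 3/7 read-out after a 3 h, 37 °C compound exposure of the DLBCL line SUDHL10. Values are background-corrected using medium-only wells.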

NCI-H23 = assay: Antiproliferation assay 7, NCI-H23; format: cell-based; details: NCI-H23 cells, 72 hours, CellTiter-Glo, read-out: Antiproli NCI-H23 IC50 median
Method: as §2, §3, §4, §5, §6

SUDHL10 [7] = test system: SUDHL10
SUDHL5 [8] = test system: SUDHL5
SNU-389 = assay: Antiproliferation assay 7, SNU-389; format: cell-based; details: SNU-389 cells, 72 hours, CellTiter-Glo; read-out: Antiproli SNU-389 IC50 median
Method: as §2, §3, §4, §5, §6

SUDHL5 [9] = assay: Induction of cytotoxicity (Assay 6), SUDHL5; details: read-out: Cytotox SUDHL5 IC50 (median); SUDHL5 cells, 5 hours, CellTiter-Glo
T47D = assay: Antiproliferation assay 7, T47D; format: cell-based; details: T47D cells, 72 hours, CellTiter-Glo; read-out: Antiproli T47D IC50 median
Method: as §2, §3, §4, §5, §6

MCL-1 = MCL-1 (Homo sapiens (Human), UniProt Q07820, K194A/K197A/R201A); assay: Protein-protein interaction assay MCL-1/Noxa BH3 peptide (MCL-1 Assay, TR-FRET); format: binding; details: read-out: MCL-1 Assay IC50 (median)
MCL-1, sequence (Q07820 whole entry K194A/K197A/R201A, looked up): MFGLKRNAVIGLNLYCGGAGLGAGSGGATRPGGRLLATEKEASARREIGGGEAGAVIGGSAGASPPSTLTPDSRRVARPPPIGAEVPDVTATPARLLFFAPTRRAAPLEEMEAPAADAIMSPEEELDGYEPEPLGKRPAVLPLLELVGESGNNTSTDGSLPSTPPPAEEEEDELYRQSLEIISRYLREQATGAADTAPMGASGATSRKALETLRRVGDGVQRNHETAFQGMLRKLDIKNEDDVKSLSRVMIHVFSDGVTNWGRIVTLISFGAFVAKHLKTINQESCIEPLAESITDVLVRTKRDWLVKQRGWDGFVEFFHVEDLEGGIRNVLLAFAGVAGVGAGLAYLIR

BCL-2 = BCL-2 (Homo sapiens (Human), UniProt P10415); assay: Protein-protein interaction assay BCL-2/Bad BH3 peptide (BCL-2 Assay, TR-FRET); format: binding; details: read-out: BCL-2 Assay IC50 (median)
BCL-2, sequence (P10415 other isoform, or with tags, fused parts or gaps): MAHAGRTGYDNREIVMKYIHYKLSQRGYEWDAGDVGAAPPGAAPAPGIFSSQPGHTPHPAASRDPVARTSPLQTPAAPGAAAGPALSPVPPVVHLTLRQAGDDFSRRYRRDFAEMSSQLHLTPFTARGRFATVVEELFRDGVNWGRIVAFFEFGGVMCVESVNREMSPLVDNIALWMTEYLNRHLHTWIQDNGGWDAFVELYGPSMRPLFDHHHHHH
In short: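 His-BCL-2 pre-equilibrated with compound 10 min at 22° C., then incubated with Bad BH3 peptide 1 h at 22° C. in dark and overnight at 4° C.; TR-FRET ratio read.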

BCL-XL = BCL-XL (Homo sapiens (Human), UniProt Q07817); assay: Protein-protein interaction assay BCL-XL/Bad BH3 peptide (BCL-XL Assay, TR-FRET); format: binding; details: read-out: BCL-XL Assay IC50 (median)
BCL-XL, sequence (Q07817 other isoform, or with tags, fused parts or gaps): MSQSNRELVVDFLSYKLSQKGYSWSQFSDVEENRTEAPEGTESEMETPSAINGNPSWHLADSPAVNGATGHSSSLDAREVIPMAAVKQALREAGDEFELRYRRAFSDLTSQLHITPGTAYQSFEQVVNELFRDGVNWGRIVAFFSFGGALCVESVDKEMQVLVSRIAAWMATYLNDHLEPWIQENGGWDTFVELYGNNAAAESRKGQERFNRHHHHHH

[10] = 3 hours, Caspase-Glo 3/7, read-out: Caspase SUDHL5 EC50 (median)
[11] = 3 hours, Caspase-Glo 3/7, read-out: Caspase SUDHL10 EC50 (median)
[12] = read-out: Cytotox SUDHL10 IC50 (median), SUDHL10 cells, 5 hours, CellTiter-Glo

IC50 (SUDHL10 [7]) | IC50 (SUDHL5 [8]) | IC50 (SUDHL10 [5]; 72 hours) | IC50 (MCL-1) | Compound | IC50 (MV-4-11; 72 hours) | EC50 (SUDHL5 [2]; [10]) | IC50 (AMO-1; 72 hours) | IC50 (SUDHL5 [4]; 72 hours) | IC50 (A2058) | IC50 (HMC-1-8; 72 hours) | IC50 (SK-BR-3) | EC50 (SUDHL10 [6]; [11]) | further results
 |  | 1700 nM |  | Cc1nn(C)c2c1-c1c(Cl)ccc3c(CCCOc4cccc5ccccc45)c(C(=O)O)n(c13)CCCCOC2 (single isomer, unassigned; enantiomer 1) [Example 3, 4-chloro-1,3-dimethyl-7-[3-(naphthalen-1-yloxy)propyl]-1,10,11,12,13,15-hexahydropyrazolo[4′,3′:9,10][1,6]oxazacycloundecino[8,7,6-hi]indole-8-carboxylic Acid (Enantiomer 1)] |  |  |  |  |  |  |  |  | IC50 (MV-4-11; Homo sapiens, MV4-11, 72 h): 766 nM; IC50 (AMO-1; Homo sapiens, AMO1, 72 h): 2510 nM; IC50 (A2058; Homo sapiens): > 30000 nM; IC50 (HMC-1-8; 72 h): 8280 nM; IC50 (SK-BR-3; Homo sapiens): 7370 nM; IC50 (SNU-389): 20600 nM; IC50 (NCI-H23; Homo sapiens): 6120 nM
> 33000 nM | > 33000 nM | 15000 nM | 43 nM | Cc1nn(C)c2c1-c1cccc3c(CCCOc4cccc5ccccc45)c(C(=O)O)n(c13)CCCCN2 [Example 70, (rac)-9,11-dimethyl-1-[3-(1-naphthyloxy)propyl]-4,5,6,7,8,9-hexahydropyrazolo[4′,3′:4,5][1,6]diazecino[3,2,1-hi]indole-2-carboxylic Acid] |  | > 33000 nM |  | > 33000 nM |  |  |  | 29000 nM | 
450 nM | 350 nM |  | 0.89 nM | (rac)-4-chloro-3-ethyl-1-[2-(morpholin-4-yl)ethyl]-7-[3-(naphthalen-1-yloxy)propyl]-1,10,11,12,13,15-hexahydropyrazolo[4′,3′:9,10][1,6]oxazacycloundecino[8,7,6-hi]indole-8-carboxylic Acid [Example 8] | 1100 nM | 290 nM | 1180 nM | 470 nM |  |  | 3000 nM | 360 nM | 

Further lines, the compound ahead of its results:

Compound | IC50 (SUDHL10 [7]) | IC50 (SUDHL5 [8]) | IC50 (SUDHL10 [5]; 72 hours) | IC50 (MCL-1) | IC50 (MV-4-11; 72 hours) | EC50 (SUDHL5 [2]; [10]) | IC50 (AMO-1; 72 hours) | IC50 (SUDHL5 [4]; 72 hours) | IC50 (A2058) | IC50 (HMC-1-8; 72 hours) | IC50 (SK-BR-3) | EC50 (SUDHL10 [6]; [11]) | further results
CCOC(=O)c1c(CCCOc2cccc3cc(F)ccc23)c2ccc(Cl)c3c2n1CCCCCN(C)c1nn(C)c(C)c1-3 |  |  |  |  |  |  |  |  |  |  |  |  | ring closure, yield of all isomers [1]: 44.8%
Cc1nn(C)c2c1-c1c(Cl)ccc3c(CCCOc4cccc5ccccc45)c(C(=O)O)n(c13)CCCCOC2 (racemic) [Example 2, rac-4-chloro-1,3-dimethyl-7-[3-(naphthalen-1-yloxy)propyl]-1,10,11,12,13,15-hexahydropyrazolo[4′,3′:9,10][1,6]oxazacycloundecino[8,7,6-hi]indole-8-carboxylic Acid] |  |  |  |  |  |  |  |  |  |  |  |  | IC50 (MV-4-11; Homo sapiens, MV4-11, 72 h): 1610 nM; EC50 (SUDHL5 [2]; Homo sapiens, SU-DHL-5, 3 h, Caspase-Glo 3/7, read-out: Caspase SUDHL5 EC50 (median)): 950 nM; IC50 (AMO-1; Homo sapiens, AMO1, 72 h): 4860 nM; IC50 (SUDHL10 [3]; Homo sapiens, SU-DHL10, 5 h, read-out: Cytotox SUDHL10 IC50 (median), SUDHL10 cells, 5 hours, CellTiter-Glo): 3000 nM; IC50 (SUDHL5 [4]; Homo sapiens, SU-DHL-5, 72 h): 2800 nM; IC50 (A2058; Homo sapiens): > 30000 nM; IC50 (SUDHL10 [5]; Homo sapiens, SU-DHL10, 72 h): 2400 nM; IC50 (HMC-1-8; 72 h): 15300 nM; IC50 (SK-BR-3; Homo sapiens): 8270 nM; EC50 (SUDHL10 [6]; Homo sapiens, SU-DHL10, 3 h, Caspase-Glo 3/7, read-out: Caspase SUDHL10 EC50 (median)): 3800 nM; IC50 (NCI-H23; Homo sapiens): 14600 nM
Cc1c2c(nn1C)COCCCCn1c(C(=O)O)c(CCCOc3cccc4ccccc34)c3ccc(Cl)c-2c31 (racemic) [Example 25, (rac)-4-chloro-2,3-dimethyl-7-[3-(naphthalen-1-yloxy)propyl]-2,10,11,12,13,15-hexahydropyrazolo[4′,3′:9,10][1,6]oxazacycloundecino[8,7,6-hi]indole-8-carboxylic Acid] | 930 nM | 530 nM |  |  | 2780 nM | 390 nM | 1310 nM | 560 nM | 21900 nM | 6480 nM | 12900 nM | 1200 nM | IC50 (NCI-H23): 6010 nM
Cc1c2c(nn1C)COCCCCn1c(C(=O)O)c(CCCOc3cccc4cc(F)ccc34)c3ccc(Cl)c-2c31 (single isomer, unassigned; enantiomer 1) [Example 15, (+)-4-chloro-7-{3-[(6-fluoronaphthalen-1-yl)oxy]propyl}-2,3-dimethyl-2,10,11,12,13,15-hexahydropyrazolo[4′,3′:9,10][1,6]oxazacycloundecino[8,7,6-hi]indole-8-carboxylic acid-N-ethylethanamine Salt (Enantiomer 1)] |  |  | 200 nM |  | 461 nM | 150 nM | 530 nM | 190 nM | 5860 nM | 1360 nM |  | 150 nM | IC50 (SUDHL5 [9]): 140 nM; IC50 (SUDHL10 [3]; [12]): 230 nM; IC50 (T47D): 11900 nM
Cc1c2c(nn1C)COCCCCn1c(C(=O)O)c(CCCOc3cccc4ccccc34)c3ccc(Cl)c-2c31 (single isomer, unassigned; enantiomer 1) [Example 26, 4-chloro-2,3-dimethyl-7-[3-(naphthalen-1-yloxy)propyl]-2,10,11,12,13,15-hexahydropyrazolo-[4′,3′:9,10][1,6]oxazacycloundecino[8,7,6-hi]indole-8-carboxylic acid-N-ethylethanamine Salt (Enantiomer 1)] |  |  |  |  | 1810 nM | 350 nM | 996 nM | 580 nM | 14900 nM | 2890 nM | 3300 nM | 410 nM | IC50 (SUDHL5 [9]): 460 nM; IC50 (SUDHL10 [3]; [12]): 500 nM; IC50 (NCI-H23): 2320 nM
(rac)-4-chloro-12,12-difluoro-2,3-dimethyl-7-{3-[(naphthalen-1-yl)oxy]propyl}-2,10,11,12,13,15-hexahydropyrazolo[4′,3′:9,10][1,6]oxazacycloundecino[8,7,6-hi]indole-8-carboxylic Acid [Example 55] | 2000 nM | 840 nM |  | 2.3 nM |  | 510 nM | 1710 nM | 620 nM |  | 5750 nM |  | 1500 nM | IC50 (BCL-2): 18800 nM; IC50 (BCL-XL): > 20000 nM
